Laboratory results reported in US20240002419A1, “RADIATION-ACTIVATED TETRAVALENT PLATINUM COMPLEX AND USE THEREOF” (priority 2020, published 2024).

Assay: Yield of reduced metal compounds under X-ray irradiation
Format: physicochemical
Details: not given
Protocol: Operation steps of test: the compound was dissolved in ultrapure water to prepare a 100 μM metal compound solution, and oxygen gas in the solution was removed by bubbling nitrogen gas for 15 minutes. […] Finally, the remaining amount of raw material was measured, the disappeared concentration of the reactant was calculated, and the radiation yield was calculated (radiation yield=disappeared concentration of reactant/radiation dose).

Row | SMILES | Yield (radiation yield = disappeared concentration of reactant/radiation dose)
1 | [Cl-].[Cl-].[Mg+2] [Compound 4, magnesium chloride] | (No metal cation reduction
2 | O=P([O-])([O-])O.[K+].[K+] [Compound 3, dipotassium hydrogen phosphate] | (No metal cation reduction
3 | O=S(=O)([O-])[O-].[Cu+2] [Compound 13, copper sulfate] | 209 nM/Gy

Same assay, conditions: 100 μM in deoxygenated ultrapure water, X-rays 0-1000 Gy, 4 Gy/min

Row | SMILES | Yield (radiation yield = disappeared concentration of reactant/radiation dose)
4 | O=[N+]([O-])[O-].[Ag+] [Compound 14, silver nitrate] | 576 nM/Gy
5 | C1=Cc2cc3ccc(cc4nc(cc5ccc(cc1n2)[nH]5)C=C4)[nH]3.[Fe] [Compound 16, iron porphyrin] | 598 nM/Gy
6 | [Cl][Ni][Cl] [Compound 10, nickel chloride] | 347 nM/Gy
7 | [Cl-].[Na+] [Compound 1, sodium chloride] | (No metal cation reduction
8 | [Cl][Fe]([Cl])[Cl] [Compound 5, ferric chloride] | 578 nM/Gy
9 | [K+].[K+].[O]=[Cr](=[O])([O-])[O][Cr](=[O])(=[O])[O-] [Compound 9, potassium dichromate] | 87 nM/Gy
10 | [NH2][Pt]([NH2])([Cl])([Cl])([O]C(=O)CCCC[P+](c1ccccc1)(c1ccccc1)c1ccccc1)[O]C(=O)CCCC[P+](c1ccccc1)(c1ccccc1)c1ccccc1 [Compound 18] | 427 nM/Gy
11 | [Cl-].[K+] [Compound 2, potassium chloride] | (No metal cation reduction

Assay: Radiation-driven (γ-ray) release of Pt(II) drugs from Pt(IV) complexes, UPLC-MS and NMR
Format: physicochemical
Details: γ-rays (60Co, 40 kGy), D2O, deoxygenated
Description: To explore the generalizability of this strategy, we further conducted the same study on two other platinum-based drugs commonly used globally, carboplatin and cisplatin.

Row | SMILES | Product released after irradiation
12 | NC1CCCCC1N.O=C(O)CCC(=O)[O][Pt]1([O]C(=O)CCC(=O)O)[O]C(=O)C(=O)[O]1 [oxaliPt(IV)-(Suc)2] | released product was oxaliplatin
13 | [NH2][Pt]1([NH2])([O]C(=O)CCC(=O)O)([O]C(=O)CCC(=O)O)[O]C(=O)C2(CCC2)C(=O)[O]1 [carboPt(IV)-(Suc)2] | release the corresponding Pt(II) drugs
14 | N.N.O=C(O)CCC(=O)[O][Pt]([Cl])([Cl])[O]C(=O)CCC(=O)O [cisPt(IV)-(Suc)2] | release the corresponding Pt(II) drugs
